Laboratory results reported in ChEMBL document CHEMBL5385881, “Design, synthesis, and discovery of Eudistomin Y derivatives as lysosome-targeted antiproliferation agents” (Eur J Med Chem, 2023).

Columns and labels:
LS180 = assay: Cytotoxicity against human LS180 cells assessed as cell inhibition measured after 72 hrs by MTT assay; format: functional, cell-based; settings: LS180, 72 h
[1] = Drug uptake in human MDA-MB-231 cells assessed as accumulation by measuring lysosome-specific fluorescent signals in presence of excess H1 at 1 uM incubated for 1 hrs by confocal laser-scanning microscopic analysis; format: ADME, cell-based; settings: mda-mb-231, 1 h
A549 = assay: Cytotoxicity against human A549 cells assessed as cell inhibition measured after 72 hrs by MTT assay; format: functional, cell-based; settings: A549, 72 h
MDA-MB-231 = assay: Cytotoxicity against human MDA-MB-231 cells assessed as cell inhibition measured after 72 hrs by MTT assay; format: functional, cell-based; settings: MDA-MB-231, 72 h
HepG2 = assay: Cytotoxicity against human HepG2 cells assessed as cell inhibition measured after 72 hrs by MTT assay; format: functional, cell-based; settings: HepG2, 72 h
SGC-7901 = assay: Cytotoxicity against human SGC-7901 cells assessed as cell inhibition measured after 72 hrs by MTT assay; format: functional, cell-based; settings: SGC-7901, 72 h

Drug uptake [1] | Compound | IC50 (LS180) [µM] | IC50 (A549) [µM] | IC50 (MDA-MB-231) [µM] | IC50 (HepG2) [µM] | IC50 (SGC-7901) [µM]
Not Active | O=C(c1ccccc1)c1nccc2c3ccccc3n(Cc3cccc(F)c3)c12 | 20 | 31.6 | 33.5 | 28.4 | 28.1
 | O=C(c1ccccc1)c1nccc2c3ccccc3n(Cc3ccc([N+](=O)[O-])cc3)c12 | 4.4 | 10.2 | 31.4 | 18.7 | 7.1
